Measured values from patent US10383880B2 (Reset Therapeutics, Inc., priority 2012, dated 2019).

What follows are molecules tested on Per2-dLuc U2OS reporter cells (assay: Per2 assay for evaluating the potency of test compounds (high-throughput circadian assay)). Conditions: Homo sapiens, U2OS, stable U2OS reporter cells harboring Per2-dLuc; luminescence monitored over 4-5 days at 35° C.
Assay type: cell-based
Protocol: Compounds were screened by using a high-throughput circadian assay system as previously described in Zhang, E. E. et al. Cell, 2009, 139, 199-210. In brief, stable U2OS reporter cells harboring Per2-dLuc were plated at a density of 8,000 cells/well in Corning 96-well, solid white, flat bottom, TC-treated microplates (Corning®), and incubated for 24 hours at 37° C. in the presence of 5% CO2. The cells were then synchronized by serum shock by media exchange to a minimal explant media (10 mM HEPES (pH 7.0), 2% B27, 1×PSG (Invitrogen®), and 1.0 mM beetle luciferin (Promega®)) followed by the addition of the compounds of formula I dissolved in dimethylsulfoxide (0.5% final dimethylsulfoxide concentration). Gene expression was monitored by measuring luminescence (TecanR M200) over 4-5 days at 35° C. The period, amplitude, and phase of the associated circadian rhythms were determined using Multicycle™ software (Actimetrics, Inc). EC50 values of the compounds of formula I were calculated using Graphpad™ (Prism®).
Molecule `O=S(=O)(CC1CCCO1)N(Cc1ccco1)CC(O)Cn1c2ccccc2c2ccccc21` (stereo not drawn) [Compound 19, N-(3-(9H-Carbazol-9-yl)-2-hydroxypropyl)-N-(furan-2-ylmethyl)-1-(tetrahydrofuran-2-yl)methanesulfonamide] has an EC50 of 2100 nM. In the case of `O=S1(=O)Cc2ccccc2CN1CC(O)Cn1c2ccccc2c2ccccc21` (stereo not drawn) [Compound 35, N-(3-(9H-Carbazol-9-yl)-2-hydroxypropyl)-3,4-dihydro-1H-benzo[d][1,2]thiazine 2,2-dioxide], the EC50 is reported as 1500 nM. With `CC1(N(CC(O)Cn2c3ccccc3c3ccccc32)S(C)(=O)=O)CCC1` (stereo not drawn) [Compound 138, N-(3-(9H-Carbazol-9-yl)-2-hydroxypropyl)-N-(1-methylcyclobutyl)methanesulfonamide] the EC50 was 41 nM. In the case of `COCCN(CC(O)Cn1c2cc(F)ccc2c2ccc(F)cc21)S(C)(=O)=O` (stereo not drawn) [Compound 95, N-(3-(2,7-Difluoro-9H-carbazol-9-yl)-2-hydroxypropyl)-N-(2-methoxyethyl)methanesulfonamide], the EC50 is reported as 2740 nM. In the case of `CC(C)S(=O)(=O)N(Cc1ccco1)CC(O)Cn1c2ccccc2c2ccccc21` (stereo not drawn) [Compound 82, N-(3-(9H-Carbazol-9-yl)-2-hydroxypropyl)-N-(furan-2-ylmethyl)propane-2-sulfonamide], the EC50 is reported as 158 nM. `COC1CCS(=O)(=O)N(CC(O)Cn2c3ccc(F)cc3c3cc(F)ccc32)C1` (stereo not drawn) [Compound 155, N-(3-(3,6-Difluoro-9H-carbazol-9-yl)-2-hydroxypropyl)-4-methoxy-1,2-thiazinane-1,1-dioxide] showed an EC50 of 324 nM. Work on `O=S1(=O)CCCN1C[C@@H](O)Cn1c2ccccc2c2ccccc21` [Compound 39, (S)-N-(3-(9H-Carbazol-9-yl)-2-hydroxypropyl)isothiazolidine 1,1-dioxide] yielded an EC50 of 21 nM. Work on `CS(=O)(=O)N(CCc1ccccc1)CC(O)Cn1c2ccccc2c2ccccc21` (stereo not drawn) [Compound 54, N-(3-(9H-Carbazol-9-yl)-2-hydroxypropyl)-N-phenethylmethanesulfonamide] yielded an EC50 of 824 nM. With `O=S1(=O)N(CC(O)Cn2c3ccccc3c3ccccc32)CCCC1(F)F` (stereo not drawn) [Compound 122, 2-(3-(9H-Carbazol-9-yl)-2-hydroxypropyl)-6,6-difluoro-1,2-thiazinane-1,1-dioxide] the EC50 was 329 nM. `CS(=O)(=O)N(CC(O)Cn1c2ccccc2c2ccccc21)C1CC1` (stereo not drawn) [Compound 56, N-(3-(9H-Carbazol-9-yl)-2-hydroxypropyl)-N-cyclopropylmethanesulfonamide] gave an EC50 of 128 nM. In the case of `O=S1(=O)Cc2ccccc2N1CC(O)Cn1c2ccccc2c2ccccc21` (stereo not drawn) [Compound 36, N-(3-(9H-Carbazol-9-yl)-2-hydroxypropyl)-1,3-dihydrobenzo[c]isothiazole 2,2-dioxide], the EC50 is reported as 539 nM. Molecule `CCCc1ccc(N(CC(O)Cn2c3ccc(F)cc3c3cc(F)ccc32)S(C)(=O)=O)cc1` (stereo not drawn) [Compound 200, N-(3-(3,6-Difluoro-9H-carbazol-9-yl)-2-hydroxypropyl)-N-(4-propylphenyl)methanesulfonamide] has an EC50 of 1890 nM. With `O=S(=O)(c1ccccc1)N(Cc1ccco1)CC(O)Cn1c2ccccc2c2ccccc21` (stereo not drawn) [Compound 4, N-(3-(9H-Carbazol-9-yl)-2-hydroxypropyl)-N-(furan-2-ylmethyl)benzenesulfonamide] the EC50 was 2500 nM. `CC(O)(CN(C1(C)CCC1)S(C)(=O)=O)Cn1c2ccc(F)cc2c2cc(F)ccc21` (stereo not drawn) [Compound 187, N-(3-(3,6-Difluoro-9H-carbazol-9-yl)-2-hydroxy-2-methylpropyl)-N-(1-methylcyclobutyl)methanesulfonamide] gave an EC50 of 2750 nM. `CC1CCN(CC(O)Cn2c3ccc(F)cc3c3cc(F)ccc32)S1(=O)=O` (stereo not drawn) [Compound 177] showed an EC50 of 202 nM. `CC(O)(CN1CCC(F)S1(=O)=O)Cn1c2ccc(F)cc2c2cc(F)ccc21` (stereo not drawn) [Compound 184, 2-(3-(3,6-Difluoro-9H-carbazol-9-yl)-2-hydroxy-2-methylpropyl)-5-fluoroisothiazolidine-1,1-dioxide] gave an EC50 of 155 nM. In the case of `CS(=O)(=O)N(CC(O)Cn1c2ccccc2c2ccccc21)c1ccccc1` (stereo not drawn) [Compound 23, N-(3-(9H-Carbazol-9-yl)-2-hydroxypropyl)-N-phenylmethanesulfonamide], the EC50 is reported as 90 nM. Work on `CS(=O)(=O)N(CC(O)Cn1c2ccccc2c2ccccc21)C1CCCC1` (stereo not drawn) [Compound 58, N-(3-(9H-Carbazol-9-yl)-2-hydroxypropyl)-N-cyclopentylmethanesulfonamide] yielded an EC50 of 150 nM. With `CC(O)(CNS(C)(=O)=O)Cn1c2ccc(F)cc2c2cc(F)ccc21` (stereo not drawn) [Compound 152, N-(3-(3,6-Difluoro-9H-carbazol-9-yl)-2-hydroxy-2-methylpropyl)methanesulfonamide] the EC50 was 1910 nM. `CS(=O)(=O)N(CC(O)Cn1c2ccccc2c2ccccc21)CC1CC2CCC1C2` (stereo not drawn) [Compound 75, N-(3-(9H-Carbazol-9-yl)-2-hydroxypropyl)-N-(bicyclo[2.2.1]heptan-2-ylmethyl)methanesulfonamide] was tested, and the EC50 was 842 nM. Molecule `CC(C)N(CC(C)(O)Cn1c2ccc(F)cc2c2cc(F)ccc21)S(C)(=O)=O` (stereo not drawn) [Compound 150, N-(3-(3,6-Difluoro-9H-carbazol-9-yl)-2-hydroxy-2-methylpropyl)-N-isopropylmethanesulfonamide] has an EC50 of 5050 nM. `CS(=O)(=O)N(CC(O)Cn1c2ccc(F)cc2c2cc(F)ccc21)c1ccc(C2CCC2)cc1` (stereo not drawn) [Compound 211, N-(4-Cyclobutylphenyl)-N-(3-(3,6-difluoro-9H-carbazol-9-yl)-2-hydroxypropyl)methanesulfonamide] gave an EC50 of 9240 nM. `CCN1CCCN(CC(C)(O)Cn2c3ccc(F)cc3c3cc(F)ccc32)S1(=O)=O` (stereo not drawn) [Compound 227, 2-(3-(3,6-Difluoro-9H-carbazol-9-yl)-2-hydroxy-2-methylpropyl)-6-ethyl-1,2,6-thiadiazinane-1,1-dioxide] showed an EC50 of 5290 nM. `CS(=O)(=O)N(CC(O)Cn1c2ccccc2c2ccccc21)c1cccnn1` (stereo not drawn) [Compound 79, N-(3-(9H-Carbazol-9-yl)-2-hydroxypropyl)-N-(pyridazin-3-yl)methanesulfonamide] gave an EC50 of 2800 nM. In the case of `CS(=O)(=O)N(CC(O)Cn1c2ccccc2c2ccccc21)c1ccc(C#N)cc1` (stereo not drawn) [Compound 80, N-(3-(9H-Carbazol-9-yl)-2-hydroxypropyl)-N-(4-cyanophenyl)methanesulfonamide], the EC50 is reported as 4220 nM. Molecule `CC1(C)CCC(N(CC(O)Cn2c3ccccc3c3ccccc32)S(C)(=O)=O)CC1` (stereo not drawn) [Compound 141, N-(3-(9H-Carbazol-9-yl)-2-hydroxypropyl)-N-(4,4-dimethylcyclohexyl)methanesulfonamide] has an EC50 of 846 nM. With `CS(=O)(=O)N(CC(O)Cn1c2ccccc2c2ccccc21)C1CCC1` (stereo not drawn) [Compound 57, N-(3-(9H-Carbazol-9-yl)-2-hydroxypropyl)-N-cyclobutylmethanesulfonamide] the EC50 was 35 nM. `CC1CCCC1N(CC(O)Cn1c2ccc(F)cc2c2cc(F)ccc21)S(C)(=O)=O` (stereo not drawn) [Compound 193A, N-(3-(3,6-Difluoro-9H-carbazol-9-yl)-2-hydroxypropyl)-N-(2-methylcyclopentyl)methanesulfonamide] showed an EC50 of 427 nM. `CN(CC(O)Cn1c2cc(F)ccc2c2ccc(F)cc21)S(C)(=O)=O` (stereo not drawn) [Compound 94, N-(3-(2,7-Difluoro-9H-carbazol-9-yl)-2-hydroxypropyl)-N-methylmethanesulfonamide] was tested, and the EC50 was 3450 nM. For `O=S1(=O)N(CC(O)Cn2c3ccc(F)cc3c3cc(F)ccc32)CCCN1C1CCCC1` (stereo not drawn) [Compound 220, 2-(3-(3,6-Difluoro-9H-carbazol-9-yl)-2-hydroxypropyl)-6-cyclopentyl-1,2,6-thiadiazinane-1,1-dioxide], the EC50 was 1660 nM. Work on `O=S(=O)(CCCF)N(Cc1ccco1)CC(O)Cn1c2ccccc2c2ccccc21` (stereo not drawn) [Compound 10, N-(3-(9H-Carbazol-9-yl)-2-hydroxypropyl)-3-fluoro-N-(furan-2-ylmethyl)propane-1-sulfonamide] yielded an EC50 of 1130 nM. `CCc1ccc(N(CC(O)Cn2c3ccc(F)cc3c3cc(F)ccc32)S(C)(=O)=O)cc1` (stereo not drawn) [Compound 201, N-(3-(3,6-Difluoro-9H-carbazol-9-yl)-2-hydroxypropyl)-N-(4-ethylphenyl)methanesulfonamide] showed an EC50 of 1570 nM. Molecule `CS(=O)(=O)NCC(O)Cn1c2ccc(F)cc2c2ccc(F)cc21` (stereo not drawn) [Compound 168, N-(3-(2,6-Difluoro-9H-carbazol-9-yl)-2-hydroxypropyl)methanesulfonamide] has an EC50 of 391 nM. `CS(=O)(=O)N(CC(O)Cn1c2ccccc2c2ccccc21)c1cccc(C#N)c1` (stereo not drawn) [Compound 72, N-(3-(9H-Carbazol-9-yl)-2-hydroxypropyl)-N-(3-cyanophenyl)methanesulfonamide] showed an EC50 of 2580 nM. Work on `O=S1(=O)CCCN1CC(O)Cn1c2ccc(F)cc2c2cc(F)ccc21` (stereo not drawn) [Compound 87, N-(3-(3,6-Difluoro-9H-carbazol-9-yl)-2-hydroxypropyl)-isothiazolidine-1,1-dioxide] yielded an EC50 of 20 nM. In the case of `COC1CCS(=O)(=O)N(CC(O)Cn2c3ccccc3c3ccccc32)C1` (stereo not drawn) [Compound 112, N-(3-(9H-Carbazol-9-yl)-2-hydroxypropyl)-4-methoxy-1,2-thiazinane-1,1-dioxide], the EC50 is reported as 44 nM. `CS(=O)(=O)N(CC(O)Cn1c2ccccc2c2ccccc21)c1ccccc1I` (stereo not drawn) [Compound 26, N-(3-(9H-Carbazol-9-yl)-2-hydroxypropyl)-N-(2-iodophenyl)methanesulfonamide] was tested, and the EC50 was 1300 nM. In the case of `O=S1(=O)CCCN1CC(O)Cn1c2cccc(F)c2c2c(F)cccc21` (stereo not drawn) [Compound 106, N-(3-(4,5-Difluoro-9H-carbazol-9-yl)-2-hydroxypropyl)-isothiazolidine-1,1-dioxide], the EC50 is reported as 8600 nM. In the case of `O=S1(=O)N(CC(O)Cn2c3ccc(F)cc3c3cc(F)ccc32)CCN1C1CCC1` (stereo not drawn) [Compound 234], the EC50 is reported as 289 nM.
